According to patent publication US20180161366A1, “METHODS OF OBTAINING MONONUCLEAR BLOOD CELLS AND USES THEREOF” (Biokine Therapeutics Ltd., priority 2015, published 2018):
Where “and” joins values, the source holds several entries; their conditions need not be identical. Equal entries are not always repeated. Where two headings read alike, the source gives them in different places. Non-standard residues stand in square brackets, D forms with d. *: point of attachment. Benzoyl(4-F) = O=C(c1ccc(F)cc1)*; Cit = NC(=O)NCCC[C@H](N)C(=O)O

Key:
[1] = test system: healthy subjects; assay: Open label single injection of BL-8040 followed by leukapheresis: composition of collected graft and kinetics of WBC, ImDC and T cells; type: in vivo, human
Method: (§1) FIG. 1 is a graph illustrating kinetic analysis of the effect of BL-8040 administration on mobilization of white blood cells (WBC) to the peripheral blood. The figure presents a time course of total WBC in the peripheral blood of subjects in response to a single SC administration of 1 mg/kg BL-8040 as determined by flow cytometry.
as §1, with “FIG. 2” for “FIG. 1”, “of immature dendritic” for “of white blood”, “cells (ImDC)” for “cells (WBC)”, “of ImDC” for “of total WBC”
as §1, with “FIG. 3” for “FIG. 1”, “of CD3+ T” for “of white blood”, “cells” for “cells (WBC)”, “of CD3+ T” for “of total WBC”
Leukapheresis—The leukapheresis procedure was commenced approximately 4 hours (±1 hour) post BL-8040 injection. Eighteen (18) Liter apheresis was collected at a Bone Marrow Transplant unit using the Spectra Optia® Apheresis System.
(§2) White blood cell count—Blood count assays were performed using Beckman-Coulter analyzers (GENS,750,000).
(§3) Flow cytometry—Cells (100 μl) were stained for 30 minutes in 0.1 ml FACS buffer with fluorescence antibodies directed against Human CD3, CD19, CD56, CD4, CD8, CCR7, CD83, lin-cocktail, CD11c, CD45RA, CD25, /Foxp3+, CD16, CD34, CD38 CD105 or matched isotype controls and mouse CD3, and B220 all from eBioscience San Diego, Calif. 92121 USA. Following staining the cells were washed with FACS buffer and analyzed by flow cytometry (5 μl per sample) using the FACS Caliber Flow Cytometer (BD Biosciences). Data was analyzed using software from CellQuest (version 3.3; BD Biosciences). Cells were first gated according to the forward scatter and side scatter parameters to exclude dead cells and the number and percent of each cell population (e.g. HSPCs, T cells, B cells, NK cells, NKT cells and DCs) was analyzed.
The second part of the study was an open label test. 8 healthy subjects received a single injection of BL-8040 (1 mg/kg) and 3-4 hours later were subjected to a standard leukapheresis (18 L) procedure. The composition of the collected graft was tested for the number of WBCs per kg, number of CD34+ HSPC per kg and number and type of T cells, B cells, NK cells and dendritic cells (DC) per kg.

[2] = test system: myeloid leukemia, hematopoietic tumors and non-small cell lung cancer; conditions: cited from earlier work
[3] = test system: mice; conditions: single injection; cited from earlier work
[4] = test system: C57BL/6 mice; assay: BL8040-induced mobilization of T cell subsets in naive mice or mice bearing pancreatic or melanoma cancer; type: in vivo; conditions: 400 μg/mouse SC
Method: Six-to 8-week-old female or male C57BL/6 were purchased from Harlan laboratories. Mice were maintained and all animal experiments were conducted according to the protocols approved by the institutional animal care of the Hebrew university.
Female C57BL/6 mice were inoculated subcutaneously at the right flank with 1× 10^6 B16F10 cells in 0.1 mL PBS. When tumors reached 90 to 150 mm^2 in size (after two weeks), mice were treated with BL-8040, according to the below regimen.
1.5×10^6 Livmet cells/10 μl PBS and 10 μl Matrigel (BD Biosciences) were injected into the pancreas of male C57BL/6 mice. Mice were treated with BL8040, 3 weeks after the injection.
BL8040 (400 μg/mouse dissolved in phosphate-buffered saline) was administered once by subcutaneous injection and 2 h later the blood was collected into tube with heparin.
Fluorescent-activated cell sorting analysis was performed on whole blood (day 0) and expanded cells (day 10).
Whole blood was treated with red blood cell lysis solution (0 155 M NH4Cl, 0.01 M KHCO3, 0.01 mmol/l EDTA, pH 7.4) in order to lyse the erythrocytes. Isolated cells were washed with PBS, re-suspended with 0.1 ml of PBS and stained with fluorescent antibodies directed against specific surface markers.
Cells were incubated with mobs: CD8-PE, CD4-APC, CD3-FITC, CD25-PE-Cy7, CD69-PerCP, CD44-PE-Cy7, CD137-PE-Cy7, CD279-FITC, CD62L-FITC and CD223-FITC (eBioscience).

[5] = target: CXCR4 receptor (Homo sapiens, UniProt P61073); conditions: cited from earlier work
[6] = test system: C57BL mice; assay: Number of CD3+ T cells and B220+ B cells in spleen and peripheral lymph nodes of mice (FIG. 4); type: in vivo, mouse; conditions: 5 mg/kg
Method: FIG. 4 are graphs presenting the number of CD3+ T cells and B220+ B cells in spleen and peripheral lymph nodes (PLN) of C57BL mice prior (denoted as control) and following administration of 5 mg/kg BL-8040, as determined by flow cytometry.
as §3

[7] = test system: healthy subjects; type: in vivo; conditions: for Mean CD34+ count (HSPC): four hours post first administration, baseline 5.8/μL, placebo 8; for Mean count of CD34+ HSPC: four hours post second administration, placebo 9
Method: as §2, §3
The first part of the study was a randomized, double-blind, placebo-controlled dose escalation. […] After obtaining informed consent, BL-8040 was administered subcutaneously (SC) once daily on 2 consecutive days at a dose of 0.5, 0.75 or 1 mg/kg.

[8] = from DiPersio Blood 2008; cited from earlier work
[9] = peripheral blood, 0.5-1 mg/kg SC

CXCR4 receptor, sequence (P61073 whole entry): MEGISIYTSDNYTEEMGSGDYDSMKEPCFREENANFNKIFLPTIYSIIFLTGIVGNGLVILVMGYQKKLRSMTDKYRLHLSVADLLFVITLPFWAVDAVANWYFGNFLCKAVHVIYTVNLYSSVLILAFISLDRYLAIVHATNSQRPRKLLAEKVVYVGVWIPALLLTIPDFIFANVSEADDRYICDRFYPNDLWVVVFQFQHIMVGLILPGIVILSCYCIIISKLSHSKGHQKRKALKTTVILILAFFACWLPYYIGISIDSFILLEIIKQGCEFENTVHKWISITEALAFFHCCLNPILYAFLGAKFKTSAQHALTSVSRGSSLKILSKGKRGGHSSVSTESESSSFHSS

4F-benzoyl-Arg-Arg-Nal-Cys-Tyr-Cit-Lys-DLys-Pro-Tyr-Arg-Cit-Cys-Arg-NH2 ({Benzoyl(4-F)}-RR[Nal]CY[Cit]K[dK]PYR[Cit]CR-NH2; not fully specified; printed as 4F-benzoyl-Arg-Arg-Nal-Cys-Tyr-Cit-Lys-DLys-Pro-Tyr-Arg-Cit-Cys-Arg-NH2; also: cyclised, bridge not given here) [BL-8040]
B cells (CD19+), % of graft ([1]; 3.5-8 hours following 1 mg/kg): 13.1%
B cells (CD19+), median ([1]; 3.5-8 hours following 1 mg/kg): 2.03 × 10^8/Kg and 2.03 (0.32-2.6) × 10^8/Kg
Central memory CD4 T cells (CD3+/CD4+ CD45RA−/CCR7+), % of CD4+ cells ([1]; 3.5-8 hours following 1 mg/kg): 37.99%
Central memory CD8 T cells (CD3+/CD8+ CD45RA−/CCR7+), % of CD8 cells ([1]; 3.5-8 hours following 1 mg/kg): 33.1%
Cytotoxic T cells (CD3+CD8+), % of graft ([1]; 3.5-8 hours following 1 mg/kg): 22.5%
Cytotoxic T cells (CD3+CD8+), median ([1]; 3.5-8 hours following 1 mg/kg): 2.89 × 10^8/Kg and 2.89 (1.7-4.9) × 10^8/Kg
Effector CD4 T cells (CD3+/CD4+ CD45RA+/CCR7−), % of CD4+ cells ([1]; 3.5-8 hours following 1 mg/kg): 6.24%
Effector CD8 T cells (CD3+/CD8+ CD45RA+/CCR7−), % of CD8 cells ([1]; 3.5-8 hours following 1 mg/kg): 1.09%
Effector memory CD4 T cells (CD3+/CD4+ CD45RA−/CCR7−), % of CD4+ cells ([1]; 3.5-8 hours following 1 mg/kg): 21.19%
Effector memory CD8 T cells (CD3+/CD8+ CD45RA−/CCR7−), % of CD8 cells ([1]; 3.5-8 hours following 1 mg/kg): 1.94%
HSPC (CD34+), % of graft ([1]; 3.5-8 hours following 1 mg/kg): 0.78%
HSPC (CD34+), median ([1]; 3.5-8 hours following 1 mg/kg): 11.89 × 10^6/Kg and 11.89 (5.1-15.0) × 10^6/Kg
Immature DCs (lin-CD11c+CD83−), % of graft ([1]; 3.5-8 hours following 1 mg/kg): 0.95%
Immature DCs (lin-CD11c+CD83−), median ([1]; 3.5-8 hours following 1 mg/kg): 1.16e+07 kg⁻¹
NK cells (CD3−CD56+), % of graft ([1]; 3.5-8 hours following 1 mg/kg): 4.76%
NK cells (CD3−CD56+), median ([1]; 3.5-8 hours following 1 mg/kg): 0.53 × 10^8/Kg and 0.53 (0.15-1.55) × 10^8/Kg
NKT cells (CD3+CD56+), % of graft ([1]; 3.5-8 hours following 1 mg/kg): 1.2%
NKT cells (CD3+CD56+), median ([1]; 3.5-8 hours following 1 mg/kg): 9.8e+06 kg⁻¹
Naïve CD4 T cells (CD3+/CD4+ CD45RA+/CCR7+), % of CD4+ cells ([1]; 3.5-8 hours following 1 mg/kg): 34.61%
Naïve CD8 T cells (CD3+/CD8+ CD45RA+/CCR7+), % of CD8 cells ([1]; 3.5-8 hours following 1 mg/kg): 63.89%
Regulatory T cells (CD4+CD25+Foxp3+), % of graft ([1]; 3.5-8 hours following 1 mg/kg): 1.28%
Regulatory T cells (CD4+CD25+Foxp3+), median ([1]; 3.5-8 hours following 1 mg/kg): 1.61e+07 kg⁻¹
T cells (CD3+), % of graft ([1]; 3.5-8 hours following 1 mg/kg): 48.08%
T cells (CD3+), median ([1]; 3.5-8 hours following 1 mg/kg): 7.32 × 10^8/Kg and 7.32 (4.0-8.5) × 10^8/Kg
T helper cells (CD3+CD4+), % of graft ([1]; 3.5-8 hours following 1 mg/kg): 21.7%
T helper cells (CD3+CD4+), median ([1]; 3.5-8 hours following 1 mg/kg): 3.3 × 10^8/Kg and 3.3 (1.44-3.9) × 10^8/Kg
number of T cells in the periphery at 24 hours ([1]; 24 hours following administration, FIG. 3): remains high
time at which number of T cells in the periphery started to decline ([1]; following administration of BL-8040): 48 h
Fold Difference (BL-8040/AMD3100), B cells CD19 ([1]; ratio of medians): 2.00
Fold Difference (BL-8040/AMD3100), Cytotoxic T cells CD3+CD8+ ([1]; ratio of medians): 2.22
Fold Difference (BL-8040/AMD3100), HSPC CD34+ ([1]; ratio of medians): 4.10
Fold Difference (BL-8040/AMD3100), NK cells CD3−CD56+ ([1]; ratio of medians): 1.77
Fold Difference (BL-8040/AMD3100), T cells CD3+ ([1]; ratio of medians): 1.59
Fold Difference (BL-8040/AMD3100), T helper cells CD3+CD4+ ([1]; ratio of medians): 1.03
Fold Difference (BL-8040/G-CSF), Cytotoxic T cells CD3+CD8+ ([1]; ratio of medians): 7.23
Fold Difference (BL-8040/G-CSF), HSPC CD34+ ([1]; ratio of medians): 2.83
Fold Difference (BL-8040/G-CSF), NK cells CD3−CD56+ ([1]; ratio of medians): 2.65
Fold Difference (BL-8040/G-CSF), T cells CD3+ ([1]; ratio of medians): 5.63
Fold Difference (BL-8040/G-CSF), T helper cells CD3+CD4+ ([1]; ratio of medians): 3
increase in the total number of WBC ([1]; single 1 mg/kg SC, FIG. 1): 5-7 fold
time within which mobilization of DCs and T cells occurs ([1]; single administration, FIGS. 2-3): 3 to 4 h
toxicity against tumors [2]: toxic against several tumors
mobilization of long term repopulating stem cells [3]: mobilized long term repopulating stem cells sufficient for transplantation
CD69+ CD25+ activated T cells in collected cells ([4]; cancerous mice vs naive mice, FIG. 6B): more CD69+ CD25+ activated T cells
mobilization of CD4 and CD8 cells ([4]; tumor bearing mice vs non injected or naive mice, blood 2 h later, FIG. 6A): increased mobilization of both CD4 and CD8 cells
binding to the CXCR4 receptor [5]: high affinity and long receptor occupancy
source of mobilized T cells (spleen and peripheral lymph nodes counts) [6]: T cells are mobilized from the lymph node into the blood
mean WBC count ([7]; 4 hr post BL-8040 administration, baseline 6.3): 2.97e+10 L⁻¹
Mean CD34+ count (HSPC) ([7]; 0.5 mg/kg): 37 cells/μL
Mean CD34+ count (HSPC) ([7]; 0.75 mg/kg): 31 cells/μL
Mean CD34+ count (HSPC) ([7]; 1 mg/kg): 35 cells/μL
Mean count of CD34+ HSPC ([7]; 0.5 mg/kg): 38 cells/μL
Mean count of CD34+ HSPC ([7]; 0.75 mg/kg): 46 cells/μL
Mean count of CD34+ HSPC ([7]; 1 mg/kg): 58 cells/μL
safety and tolerability ([7]; healthy subjects, SC once daily on 2 consecutive days, all doses tested (0.5-1 mg/kg)): safe and well tolerated
primary treatment related adverse effects ([7]; healthy subjects, SC, 0.5-1 mg/kg): mild to moderate transient injection site and systemic reactions
mobilization of MSC and HPC colony forming cells [7, 9]: rapid mobilization
mobilization of T, B and NK cells [7, 9]: substantial mobilization
duration of CXCR4 receptor occupancy and pharmacodynamic effect ([7]; post dosing): ≥ 24 h

B1: G-CSF: mobilization agent (protein, UniProt P09919 31-207, looked up)
Granulocyte …: TPLGPASSLPQSFLLKCLEQVRKIQGDGAALQEKLVSECATYKLCHPEELVLLGHSLGIPWAPLSSCPSQALQLAGCLSQLHSGLFLYQGLLQALEGISPELGPTLDTLQLDVADFATTIWQQMEELGMAPALQPTQGAMPAFASAFQRRAGGVLVASHLQSFLEVSYRVLRHLAQP
Cytotoxic T cells (CD3+CD8+), Median (range) [8]: 0.4 (0.4-3.4) × 10^8/Kg
HSPC (CD34+), Median (range) [8]: 4.2 (2.5-18) × 10^6/Kg
NK cells (CD3−CD56+), Median (range) [8]: 0.2 (0.2-0.5) × 10^8/Kg
T cells (CD3+), Median (range) [8]: 1.3 (1.2-6.8) × 10^8/Kg
T helper cells (CD3+CD4+), Median (range) [8]: 1.1 (0.7-3.2) × 10^8/Kg
